The target of this assay is PKMYT1 (Homo sapiens (Human), UniProt Q99640). The assay can be described thus: PKMYT1 HTRF Assay. It counts as binding. The following applies: Tracer 178, GST-Tb; compound 10 μM to 0.5 nM; read-out: MYT1 HTRF IC50. The method, then: Example A: PKMYT1 HTRF Assay
Compound serial dilution is performed by Echo, and the final concentrations vary from 10 μM to 0.5 nM. This was filled by the addition of 5 μL/well of Enzyme solution to the assay plate containing the compound. The plate was centrifuged at 1000 rpm for 1 minute, and incubate 15 minutes at 25 ? . Then 5 μL/well of tracer solution (Tracer 178) was added to initiate the reaction, and incubate for 60 minutes at 25° C. Next 5 μL GST-Tb was added into the assay plate, the plate was centrifuged at 1000 rpm for 1 minute, and incubate for 15 minutes at 25 ? . The assay plate was read on Envision.

By IC50 is commonly meant the concentration needed to halve the response being measured.

Chain of PKMYT1 (Q99640 whole entry): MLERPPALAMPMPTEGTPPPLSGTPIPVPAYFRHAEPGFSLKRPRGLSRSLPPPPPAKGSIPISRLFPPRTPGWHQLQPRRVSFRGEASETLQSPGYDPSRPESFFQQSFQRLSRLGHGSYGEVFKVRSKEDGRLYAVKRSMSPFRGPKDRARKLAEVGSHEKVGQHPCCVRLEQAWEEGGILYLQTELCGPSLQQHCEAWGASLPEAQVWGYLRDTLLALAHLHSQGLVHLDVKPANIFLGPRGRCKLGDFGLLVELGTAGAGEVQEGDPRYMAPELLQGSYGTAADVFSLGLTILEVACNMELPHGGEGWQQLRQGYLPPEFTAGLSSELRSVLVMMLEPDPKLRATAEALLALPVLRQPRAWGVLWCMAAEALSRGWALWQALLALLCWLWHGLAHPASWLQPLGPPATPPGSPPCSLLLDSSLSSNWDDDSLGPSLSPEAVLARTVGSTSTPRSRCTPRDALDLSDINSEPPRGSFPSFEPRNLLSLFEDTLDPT

For `Cc1ccc(O)c(C)c1-c1cnc2[nH]c(C3=CCCOC3)cc2c1C#N` [Example 36, 2-(5,6-dihydro-2H-pyran-3-yl)-5-(3-hydroxy-2,6-dimethylphenyl)-1H-pyrrolo[2,3-b]pyridine-4-carbonitrile], the IC50 was in the range of 10 to 50 nM.

Consider `Cc1ccc(O)c(C)c1-c1cnc2[nH]c(-c3cnc(N4CCC(F)(F)C4)nc3)cc2c1C#N` [Example 37, 2-(2-(3,3-difluoropyrrolidin-1-yl)pyrimidin-5-yl)-5-(3-hydroxy-2,6-dimethylphenyl)-1H-pyrrolo[2,3-b]pyridine-4-carbonitrile], for which the IC50 is < 10 nM.

As to `Cc1ccc(O)c(C)c1-c1cnc2[nH]c(-c3cnc(N4CCC(F)(F)C4)nc3)c(Cl)c2c1C#N` [Example 38, (R)-3-chloro-2-(2-(3,3-difluoropyrrolidin-1-yl)pyrimidin-5-yl)-5-(3-hydroxy-2,6-dimethylphenyl)-1H-pyrrolo[2,3-b]pyridine-4-carbonitrile], the IC50 is < 10 nM.

With `Cc1ccc(O)c(C)c1-c1cnc2[nH]c(-c3cnc(N)nc3)cc2c1C#N` [Example 39, (R)-2-(2-aminopyrimidin-5-yl)-5-(3-hydroxy-2,6-dimethylphenyl)-1H-pyrrolo[2,3-b]pyridine-4-carbonitrile], the IC50 was < 10 nM.

In the case of `Cc1ccc(O)c(C)c1-c1cnc2[nH]c(-c3cnc(N)nc3)c(Cl)c2c1C#N` [Example 40, (R)-2-(2-aminopyrimidin-5-yl)-3-chloro-5-(3-hydroxy-2,6-dimethylphenyl)-1H-pyrrolo[2,3-b]pyridine-4-carbonitrile], the IC50 was < 10 nM.

As for `Cc1ccc(O)c(C)c1-c1cnc2[nH]c(-c3cnc(N4CC5CC4CO5)nc3)cc2c1C#N` [Example 42, (R)-2-(2-((1S,4S)-2-oxa-5-azabicyclo[2.2.1]heptan-5-yl)pyrimidin-5-yl)-5-(3-hydroxy-2,6-dimethylphenyl)-1H-pyrrolo[2,3-b]pyridine-4-carbonitrile], the IC50 was < 10 nM.

As to `Cc1ccc(O)c(C)c1-c1cnc2[nH]c(-c3cnc(N4CC5CC4CO5)nc3)c(Cl)c2c1C#N` (stereo not drawn) [Example 44, 2-(2-(2-oxa-5-azabicyclo[2.2.1]heptan-5-yl)pyrimidin-5-yl)-3-chloro-5-(3-hydroxy-2,6-dimethylphenyl)-1H-pyrrolo[2,3-b]pyridine-4-carbonitrile], the IC50 was < 10 nM.

Regarding `Cc1ccc(O)c(C)c1-c1cnc2[nH]c(-c3cnc(N4CC(O)C4)nc3)cc2c1C#N` [Example 45, (R)-5-(3-hydroxy-2,6-dimethylphenyl)-2-(2-(3-hydroxyazetidin-1-yl)pyrimidin-5-yl)-1H-pyrrolo[2,3-b]pyridine-4-carbonitrile], the IC50 is < 10 nM.

With `Cc1ccc(O)c(C)c1-c1cnc2[nH]c(-c3cnc(N4CC(O)C4)nc3)c(Cl)c2c1C#N` [Example 46, (R)-3-chloro-5-(3-hydroxy-2,6-dimethylphenyl)-2-(2-(3-hydroxyazetidin-1-yl)pyrimidin-5-y1)-1H-pyrrolo[2,3-b]pyridine-4-carbonitrile], the IC50 is < 10 nM.

In the case of `Cc1ccc(O)c(C)c1-c1cnc2[nH]c(-c3cnc(NC4CC4)nc3)cc2c1C#N` [Example 47, (R)-2-(2-(cyclopropylamino)pyrimidin-5-yl)-5-(3-hydroxy-2,6-dimethylphenyl)-1H-pyrrolo[2,3-b]pyridine-4-carbonitrile], the IC50 is < 10 nM.

With `Cc1ccc(O)c(C)c1-c1cnc2[nH]c(-c3cnc(NC4CC4)nc3)c(Cl)c2c1C#N` [Example 48, (R)-3-chloro-2-(2-(cyclopropylamino)pyrimidin-5-yl)-5-(3-hydroxy-2,6-dimethylphenyl)-1H-pyrrolo[2,3-b]pyridine-4-carbonitrile], the IC50 is < 10 nM.

Consider `Cc1ccc(O)c(C)c1-c1cnc2[nH]c(-c3cnc(N4CCC4)nc3)cc2c1C#N` [Example 49, (R)-2-(2-(azetidin-1-yl)pyrimidin-5-y1)-5-(3-hydroxy-2,6-dimethylphenyl)-1H-pyrrolo[2,3-b]pyridine-4-carbonitrile], for which the IC50 is < 10 nM.

Consider `Cc1ccc(O)c(C)c1-c1cnc2[nH]c(-c3cnc(N(C)C)nc3)c(Cl)c2c1C#N` [Example 50, (S)-3-chloro-2-(2-(dimethylamino)pyrimidin-5-yl)-5-(3-hydroxy-2,6-dimethylphenyl)-1H-pyrrolo[2,3-b]pyridine-4-carbonitrile], for which the IC50 is < 10 nM.

For the compound `Cc1ccc(O)c(C)c1-c1cnc2[nH]c(-c3cnc(O)nc3)cc2c1C#N` [Example 52, (R)-5-(3-hydroxy-2,6-dimethylphenyl)-2-(2-hydroxypyrimidin-5-yl)-1H-pyrrolo[2,3-b]pyridine-4-carbonitrile], the IC50 is < 10 nM.

As to `Cc1ccc(O)c(C)c1-c1cnc2[nH]c(-c3cnc(OC4COC4)nc3)cc2c1C#N` [Example 53, (S)-5-(3-hydroxy-2,6-dimethylphenyl)-2-(2-(oxetan-3-yloxy)pyrimidin-5-yl)-1H-pyrrolo[2,3-b]pyridine-4-carbonitrile], the IC50 is < 10 nM.

Regarding `Cc1ccc(O)c(C)c1-c1cnc2[nH]c(-c3cnc(C(F)F)nc3)c(Cl)c2c1C#N` [Example 54, (S)-3-chloro-2-(2-(difluoromethyl)pyrimidin-5-yl)-5-(3-hydroxy-2,6-dimethylphenyl)-1H-pyrrolo[2,3-b]pyridine-4-carbonitrile], the IC50 was < 10 nM.

Regarding `Cc1ccc(O)c(C)c1-c1cnc2[nH]c(-c3cnc(C(F)(F)F)nc3)cc2c1C#N` [Example 55, 5-(3-hydroxy-2,6-dimethylphenyl)-2-(2-(trifluoromethyl)pyrimidin-5-yl)-1H-pyrrolo[2,3-b]pyridine-4-carbonitrile], the IC50 is < 10 nM.

`Cc1ccc(O)c(C)c1-c1cnc2[nH]c(-c3cnc(C4CC4)nc3)cc2c1C#N` [Example 56, (S)-2-(2-cyclopropylpyrimidin-5-yl)-5-(3-hydroxy-2,6-dimethylphenyl)-1H-pyrrolo[2,3-b]pyridine-4-carbonitrile]: the IC50 was < 10 nM.

Consider `Cc1ccc(O)c(C)c1-c1cnc2[nH]c(-c3cnc(C4CC4)nc3)c(Cl)c2c1C#N` [Example 57, (S)-3-chloro-2-(2-cyclopropylpyrimidin-5-yl)-5-(3-hydroxy-2,6-dimethylphenyl)-1H-pyrrolo[2,3-b]pyridine-4-carbonitrile], for which the IC50 is < 10 nM.

Take `Cc1ccc(O)c(C)c1-c1cnc2[nH]c(-c3cnc(CO)nc3)cc2c1C#N` [Example 58, (S)-5-(3-hydroxy-2,6-dimethylphenyl)-2-(2-(hydroxymethyl)pyrimidin-5-yl)-1H-pyrrolo[2,3-b]pyridine-4-carbonitrile]: the IC50 was < 10 nM.

Regarding `Cc1ncc(-c2cc3c(C#N)c(-c4c(C)ccc(O)c4C)cnc3[nH]2)s1` [Example 59, (R)-5-(3-hydroxy-2,6-dimethylphenyl)-2-(2-methylthiazol-5-yl)-1H-pyrrolo[2,3-b]pyridine-4-carbonitrile], the IC50 is < 10 nM.

For the compound `Cc1ncc(-c2[nH]c3ncc(-c4c(C)ccc(O)c4C)c(C#N)c3c2Cl)s1` [Example 60, (R)-3-chloro-5-(3-hydroxy-2,6-dimethylphenyl)-2-(2-methylthiazol-5-yl)-1H-pyrrolo[2,3-b]pyridine-4-carbonitrile], the half-maximal inhibitory concentration (IC50) was < 10 nM.

On to `Cc1ccc(O)c(C)c1-c1cnc2[nH]c(-c3cnc4[nH]cnc4c3)cc2c1C#N` [Example 63, (R)-5-(3-hydroxy-2,6-dimethylphenyl)-2-(3H-imidazo[4,5-b]pyridin-6-y1)-1H-pyrrolo[2,3-b]pyridine-4-carbonitrile], for which the IC50 was < 10 nM.

Take `Cc1ccc(O)c(C)c1-c1cnc2[nH]c(-c3cnc(C)c(=O)[nH]3)c(Cl)c2c1C#N` [Example 64, 3-chloro-5-(3-hydroxy-2,6-dimethylphenyl)-2-(5-methyl-6-oxo-1,6-dihydropyrazin-2-yl)-1H-pyrrolo[2,3-b]pyridine-4-carbonitrile]: the IC50 was 10 to 50 nM.

For `Cc1ccc(O)c(C)c1-c1cnc2[nH]c(-c3cnn(C)c(=O)c3)cc2c1C#N` [Example 65, 5-(3-hydroxy-2,6-dimethylphenyl)-2-(1-methyl-6-oxo-1,6-dihydropyridazin-4-yl)-1H-pyrrolo[2,3-b]pyridine-4-carbonitrile], the IC50 was < 10 nM.

Take `Cc1ccc(O)c(C)c1-c1cnc2[nH]c(-c3cnn(C)c(=O)c3)c(Cl)c2c1C#N` [Example 66, (R)-3-chloro-5-(3-hydroxy-2,6-dimethylphenyl)-2-(1-methyl-6-oxo-1,6-dihydropyridazin-4-yl)-1H-pyrrolo[2,3-b]pyridine-4-carbonitrile]: the IC50 was < 10 nM.

Turning to `COCCn1ncc(-c2[nH]c3ncc(-c4c(C)ccc(O)c4C)c(C#N)c3c2Cl)cc1=O` [Example 67, (R)-3-chloro-5-(3-hydroxy-2,6-dimethylphenyl)-2-(1-(2-methoxyethyl)-6-oxo-1,6-dihydropyridazin-4-yl)-1H-pyrrolo[2,3-b]pyridine-4-carbonitrile], the IC50 is < 10 nM.

With `Cc1ccc(O)c(C)c1-c1cnc2[nH]c(-c3cnn(C4CCOCC4)c(=O)c3)c(Cl)c2c1C#N` [Example 68, (R)-3-chloro-5-(3-hydroxy-2,6-dimethylphenyl)-2-(6-oxo-1-(tetrahydro-2H-pyran-4-yl)-1,6-dihydropyridazin-4-yl)-1H-pyrrolo[2,3-b]pyridine-4-carbonitrile], the IC50 is < 10 nM.

In the case of `Cc1ccc(O)c(C)c1-c1cnc2[nH]c(-c3cnc(N4CC(C(=O)O)C4)nc3)cc2c1C#N` [Example 69, (R)-1-(5-(4-cyano-5-(3-hydroxy-2,6-dimethylphenyl)-1H-pyrrolo[2,3-b]pyridin-2-yl)pyrimidin-2-yl)azetidine-3-carboxylic acid], the IC50 was < 10 nM.

`Cc1ccc(O)c(C)c1-c1cnc2[nH]c(-c3cnc(N4CC(C(=O)O)C4)nc3)c(Cl)c2c1C#N` [Example 70, (R)-1-(5-(3-chloro-4-cyano-5-(3-hydroxy-2,6-dimethylphenyl)-1H-pyrrolo[2,3-b]pyridin-2-yl)pyrimidin-2-yl)azetidine-3-carboxylic acid]: the IC50 is < 10 nM.

Values taken from patent US20250136596A1, “MEMBRANE-ASSOCIATED TYROSINE- AND THREONINE-SPECIFIC CDC2-INHIBITORY KINASE (PKMYT1) INHIBITORS AND USES THEREOF” (Insilico Medicine IP Limited, priority 2022, published 2025).
